From patent US7932382B2, “Conformationally constrained Smac mimetics and the uses thereof” (The Regents of the University of Michigan, priority 2005, dated 2011)
Where a SMILES comes first, the peptide text is derived from it. [ ]: non-standard residue; d: D form. The star is where a group is joined. 6FAM = O=C1OC2(c3ccc(O)cc3Oc3cc(O)ccc32)c2cc(C(=O)*)ccc21; Abu = CC[C@H](N)C(=O)O

Legend:
PC-3 cells = experiment: Apoptosis by Annexin V-FITC staining in PC-3 cells; assay type: cell-based, human; settings: for potentiation of the activity of CDDP in inducing apoptosis: PC-3 cells
Procedure: PC-3 cells were treated with CDDP, Smac peptides and mimetics alone or in combination for 42 hours and apoptosis was analyzed by Annexin V-FITC staining. […] Combination of 25 μM CDDP and 10 μM or 25 μM SH-97 induced 29.3%±1.9% and 35.8%±0.4% apoptosis over control cells, respectively (FIG. 10A).
Similar experiments were performed with SH-102 (Table 5). PC-3 cells in 6-well plates were treated with SH-102 and CDDP, alone or on combination, for 42 hours. Cells were collected and stained with Annexin V-FITC and propidium iodide. The fluorescence of Annexin V-FITC and propidium iodide of individual cells was analyzed by flow cytometry. […] Combination of 25 μM CDDP and 10 μM SH-102 induced 32% apoptosis over control cells (FIG. 11).
The same experiment was performed using TAXOTERE (docetaxel), another cancer chemotherapeutic drug. PC-3 cells in 6-well plates were treated with SH-102 and TAXOTERE, alone or in combination, for 42 hours. Cells were collected and stained with Annexin V-FITC and propidium iodide. The fluorescence of Annexin V-FITC and propidium iodide of individual cells was analyzed by flow cytometry. […] Combination of 10 μM taxotere and 10 μM SH-102 induced about 18% apoptosis over control cells (FIG. 13).

MDA-231 cells = experiment: Apoptosis by Annexin V-FITC/propidium iodide flow cytometry in MDA-231 cells; assay type: cell-based, human; settings: for cells undergoing apoptosis as compared to control cells: 42 hours; for potentiation of the activity of CDDP in inducing apoptosis: MDA-231 cells
Procedure: Similar experiments were performed using the breast cancer cell line MDA-231. MDA-231 cells in 6-well plates were treated with SH-102 and CDDP, alone or on combination, for 42 hours. Cells were collected and stained with Annexin V-FITC and propidium iodide. The fluorescence of Annexin V-FITC and propidium iodide of individual cells was analyzed by flow cytometry. 25 μM and 50 μM CDDP induced about 25% and 42% of MDA-231 cells to undergo apoptosis as compared to control cells, respectively (FIG. 14). […] Combination of 25 and 50 μM CDDP and 10 μM SH-102 induced about 35% and 75% apoptosis over control cells, respectively (FIG. 14).

[1] = biological target: T1, human XIAP-BIR3 protein (residues 241-356) (Homo sapiens, UniProt P98170); experiment: biochemical
T1 sequence (P98170 241-356): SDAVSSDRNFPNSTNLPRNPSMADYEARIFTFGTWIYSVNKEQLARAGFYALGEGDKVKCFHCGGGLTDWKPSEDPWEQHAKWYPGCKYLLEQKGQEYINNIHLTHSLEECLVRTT

[2] = biological target: T1, human XIAP-BIR3 protein (residues 241-356); experiment: Fluorescence polarization saturation (direct) binding of labeled Smac peptides; set-up: The human XIAP-BIR3 protein (residues 241-356) with a His tag; settings: 5 nM labeled peptide titrated with 0 to 40 μM protein; read-out: Kd value (dissociation constant to XIAP-BIR3)
[3] = test system: MDA-435, MDA468, and T47D cells; experiment: Cell growth inhibition (WST-8) in breast cancer cell lines; assay type: cell-based, human; settings: all three cell lines, 5 days
Procedure: To test the effect of Smac mimetics by themselves in inhibition of cell growth in human cancer cells, SH-102 was administered to three different breast cancer cell lines. MDA-435, MDA468, and T47D cells were seeded in 96-well plates with increasing concentrations of SH-102, Smac8, or Smac8-C. The cells were then incubated at 37° C. with 5% CO2 for 5 days, followed by detection of cell viability with WST-8. Untreated cells were used as 100% growth. […]. […] (FIGS. 18A-18C).

XIAP = XIAP (Homo sapiens, UniProt P98170); settings: cited from earlier work
XIAP, sequence (P98170 whole entry): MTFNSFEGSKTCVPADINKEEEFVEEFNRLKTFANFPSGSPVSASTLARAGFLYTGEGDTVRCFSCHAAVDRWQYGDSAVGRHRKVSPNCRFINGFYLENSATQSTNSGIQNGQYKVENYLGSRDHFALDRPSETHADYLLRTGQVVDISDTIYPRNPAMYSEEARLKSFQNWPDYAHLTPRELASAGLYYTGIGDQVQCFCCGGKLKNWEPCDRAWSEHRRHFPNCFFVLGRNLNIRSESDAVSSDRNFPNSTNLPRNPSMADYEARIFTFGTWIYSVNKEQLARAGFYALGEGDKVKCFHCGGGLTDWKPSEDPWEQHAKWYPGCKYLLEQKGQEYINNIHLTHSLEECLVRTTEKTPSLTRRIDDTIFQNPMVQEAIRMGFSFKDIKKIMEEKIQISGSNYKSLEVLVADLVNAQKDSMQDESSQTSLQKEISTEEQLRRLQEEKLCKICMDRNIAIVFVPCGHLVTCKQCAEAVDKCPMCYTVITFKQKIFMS

For `[NH2][Pt]([NH2])([Cl])[Cl]` [CDDP, cisplatin], the “cancer cells undergoing apoptosis as compared to control cells” value (PC-3 cells; 50 μM CDDP alone, 42 hours) was ~25%, the “cells undergoing apoptosis as compared to control cells” value (MDA-231 cells; 25 μM CDDP alone) was “about 25%” and the “cells undergoing apoptosis as compared to control cells” value (MDA-231 cells; 50 μM CDDP alone) was ~42%.

For `CC[C@H](N)C(=O)N[C@H]1CCC[C@H]2CC[C@@H](C(=O)NC(c3ccccc3)c3ccccc3)N2C1=O` [Compound 34], the “apoptosis compared to untreated cancer cells” value (PC-3 cells; SH-102 alone up to 100 μM, 42 hours) was “did not induce significantly more apoptosis”.

With `CCC(CC)CNC(=O)[C@@H]1CC[C@@H]2CC[C@H](NC(=O)[C@H](C)N)C(=O)N21` [SH-76] the Ki [1] was > 200 µM.

For `CCC[C@H](N)C(=O)N[C@H]1CC[C@H]2CC[C@@H](C(=O)NCc3ccccc3)N2C1=O` [SH-93], the “potentiation of the activity of CDDP in inducing apoptosis” value (“potentiation of the activity of CDDP” below) (PC-3 cells) was “unable to potentiate” and the “potentiation of the activity of CDDP” value (MDA-231 cells) was “unable to potentiate”.

For `CC[C@H](N)C(=O)N[C@@H](CCCNC(=N)N)C(=O)N1CCC[C@H]1C(=O)N[C@@H](Cc1ccccc1)C(=O)N[C@@H](CCCCNC(=O)c1ccc2c(c1)C1(OC2=O)c2ccc(O)cc2Oc2cc(O)ccc21)C(N)=O` [SM5F, AbuRPFK-FAM] (H-[Abu]RPFK(6FAM)-NH2; N-terminus and C-terminus assumed), the Kd [2] was 17.9 nM.

With “AVPIAQKS [Smac8, Smac peptide without a carrier peptide, negative control]” the “inhibition of cell growth (in words)” value [3] was “essentially ineffective”, the “potentiation of the activity of CDDP” value (PC-3 cells) was “unable to potentiate” and the “potentiation of the activity of CDDP” value (MDA-231 cells) was “unable to potentiate”.

B1: mature Smac protein: mature Smac/DIABLO protein, endogenous inhibitor of XIAP (protein, UniProt Q9NR28 22-239, looked up)
Diablo IAP-binding …: LCVPVVANFKKRCFSELIRPWHKTVTIGFGVTLCAVPIAQKSEPHSLSSEALMRRAVSLVTDSTSTFLSQTTYALIEAITEYTKAVYTLTSLYRQYTSLLGKMNSEEEDEVWQVIIGARAEMTSKHQEYLKLETTWMTAVGLSEMAAEAAYQTGADQASITARNHIQLVKLQVEEVHQLSRKAETKLAEAQIEELRQKTQEEGEERAESEQEAYLRED
In the case of B1, the Kd (XIAP) is listed as 420 nM.
